The nature of experiment [1]: microbe, parasite or virus in culture. The following applies: Mycobacterium tuberculosis, 72 h, read-out: pIC50 (converted).
The nature of experiment [2]: microbe, parasite or virus in culture. The note with it: Mycobacterium tuberculosis, 96 h, read-out: pIC50 (converted).

The record followed here is ChEMBL document CHEMBL3988442, “University of Dundee, Small-Polar-MMV Screening Library” (2021).

For `O=C(Nc1cc(Cl)ccc1F)C1=COCCO1`, the IC50 in experiment [1] is 228 µM; in experiment [2] it was 265 µM.

Regarding `COc1ccc(S(=O)(=O)Nc2cccc(CN)c2)cc1`, the IC50 in experiment [1] was 162 µM; in experiment [2], over 501 µM.

Consider `CN(Cc1ccsc1)Cc1ccc(S(=O)(=O)N(C)C)o1`, for which the IC50 in experiment [1] was over 501 µM; in experiment [2], 86.4 µM.

Consider `Cn1cc(CNC(=O)C2CSc3ccccc3O2)cn1` (stereo not given), for which the IC50 was 218 µM in experiment [1] and over 501 µM in experiment [2].

Regarding `COc1cc(Cl)ccc1CN`, the figures for the IC50 in experiment [1] and in experiment [2] were over 501 µM and 279 µM, respectively.

On to `Cc1oc(C)c(C(=O)NCC(=O)N2CCCC2)c1C`, for which the IC50 in experiment [1] and in experiment [2] was over 501 µM throughout.

In the case of `CN1CN(Cc2ccc(Cl)o2)CC1=O`, the IC50 in experiment [1] and in experiment [2] was over 501 µM in each case.

For the compound `COCc1nn(Cc2csc(C(C)C)n2)c(=O)o1`, the IC50 in experiment [1] is 14.9 µM; in experiment [2] it was 22.5 µM.

In the case of `CCC(N)c1cnn(CC)c1` (stereo not given), the IC50 in experiment [1] and in experiment [2] was over 501 µM in each case.

As to `CC(Oc1ccc2c(c1)OCO2)C(=O)NC1CC1` (stereo not given), the IC50 in experiment [1] and in experiment [2] was over 501 µM in each case.

For `CCC(C)NC(=O)c1cc(F)cc(F)c1` (stereo not given), the IC50 is 130 µM in experiment [1] and 229 µM in experiment [2].

Take `COCc1nn(CCC2CCCC2)c(=O)o1`: the IC50 is 68.2 µM in experiment [1] and 86.6 µM in experiment [2].

Take `NCC(O)c1ccc(Cl)cc1Cl` (stereo not given): the IC50 was 304 µM in experiment [1] and over 501 µM in experiment [2].

As for `CCC(CNS(=O)(=O)N(C)CC)c1ccccc1` (stereo not given), the IC50 in experiment [1] is 249 µM; in experiment [2], over 501 µM.

Take `CC(CNC(=O)c1ccncc1)c1ccccc1` (stereo not given): the IC50 was 189 µM in experiment [1] and over 501 µM in experiment [2].

On to `Cc1cc(C)n(CC(=O)NCc2ccc(F)cc2)n1`, for which the values for the IC50 in experiment [1] and in experiment [2] were 216 µM and over 501 µM, respectively.

Take `NCc1noc2c1CCCC2`: the IC50 in experiment [1] and in experiment [2] was over 501 µM each time.

Turning to `Cc1csc(NC(=O)NC(CO)CC(C)C)n1` (stereo not given), the figures for the IC50 in experiment [1] and in experiment [2] were 341 µM and 289 µM, respectively.

Turning to `NCc1nc(-c2cccc(Cl)c2)no1`, the results for the IC50 in experiment [1] and in experiment [2] were 323 µM and over 501 µM, respectively.

Regarding `Cc1ccc(NC(=O)C(C)N2CCC(O)CC2)cc1F` (stereo not given), the IC50 in experiment [1] was 200 µM; in experiment [2], 284 µM.

For `O=S(=O)(CCN1CC[C@@H](O)C1)c1cccc(Br)c1`, the IC50 in experiment [1] was 112 µM; in experiment [2] it was 146 µM.

For the compound `CCSc1nc2ccccc2c(=O)n1CCCO`, the IC50 in experiment [1] is 181 µM; in experiment [2], 278 µM.

Turning to `CNC(=O)NC(=O)CSc1ccccc1F`, the IC50 in experiment [1] and in experiment [2] was over 501 µM each time.

Turning to `COC(=O)CCNS(=O)(=O)c1ccc(OC)cc1`, the IC50 in experiment [1] and in experiment [2] was over 501 µM each time.

Consider `CN1CCN(C(=O)c2cc3ccccc3o2)CC1`, for which the IC50 in experiment [1] is 207 µM; in experiment [2] it was 203 µM.

With `CCOC(=O)c1cnc(N2CCNCC2)s1`, the IC50 in experiment [1] was 256 µM; in experiment [2] it was 240 µM.

Consider `O=C1OCCC1Sc1nnc(Nc2ccccc2)s1` (stereo not given), for which the values for the IC50 in experiment [1] and in experiment [2] were 455 µM and over 501 µM, respectively.

For the compound `CCNC(=O)CN(CC)S(=O)(=O)c1ccc(C)cc1`, the IC50 in experiment [1] is 295 µM; in experiment [2], over 501 µM.

Consider `CSCc1cc(F)ccc1CNC(=O)c1cn[nH]c1C`, for which the IC50 in experiment [1] and in experiment [2] was over 501 µM each time.

Regarding `N[C@@H]1C[C@H]1c1ccc2c(c1)OCCO2`, the results for the IC50 in experiment [1] and in experiment [2] were over 501 µM and 196 µM, respectively.

Consider `CNc1nnc(-c2ccccc2)s1`, for which the IC50 in experiment [1] and in experiment [2] was over 501 µM throughout.

In the case of `O=C(Nc1cc(F)cc(F)c1)c1ccncc1`, the IC50 in experiment [1] was 224 µM; in experiment [2] it was over 501 µM.

Turning to `NCc1nc(-c2ccc(Cl)cc2)c[nH]1`, the IC50 was 128 µM in experiment [1] and 264 µM in experiment [2].

For the compound `O=C(NCc1ccnc(N2CCCC2)c1)c1ccsc1`, the IC50 in experiment [1] was 114 µM; in experiment [2] it was 141 µM.

Consider `COCCNc1ccc(OC)c(OC)c1`, for which the IC50 in experiment [1] was 257 µM; in experiment [2], over 501 µM.
